Where “and” joins values, the source holds several entries; their conditions need not be identical. Identical values can stand only once. Where a SMILES comes first, the peptide text is derived from it. [ ]: non-standard residue; d: D form. Hyp = O=C(O)[C@@H]1C[C@@H](O)CN1
Tested on: IL-2
Assay: Example 9 Luminex, LPS hPBMCs: IL-2
Assay type: cell-based, human
Details: for IL-2 Concentration: dilution 2.0
Method: Treatment Human PBMCs were pretreated with YY-101, YDE-011 and YDE-043 or reference compound; Xiidra® at various concentration (ranging from 1 nM to 100 uM) for 2 h before stimulation. An equal volume of 0.5% DMSO was used as a vehicle control. Then, the cells were treated with LPS at 5 ug/ml. The supernatants from treated cells were harvested at 24 h and placed in a 96 well for Luminex cytokine & chemokine profiling using a Luminex 200 multiplex assay (Luminex; R&D system, USA).
The main study arm with triplicate wells per group in a 24-well plate: • 1. Blank • 2. PBMC: 0.5% DMSO • 3. PBMC+LPS (5 ug/ml) • 4. PBMC+YY-101 100 uM • 5. PBMC+YY-101 10 uM • 6. PBMC+YY-101 1 uM • 7. PBMC+YY-101 0.1 uM • 8. PBMC+YY-101 0.01 uM • 9. PBMC+LPS (5 ug/ml)+Xiidra®100 uM • 10. PBMC+LPS (5 ug/ml)+Xiidra® 10 uM • 11. PBMC+LPS (5 ug/ml)+Xiidra® 1 uM • 12. PBMC+LPS (5 ug/ml)+Xiidra®0.1 uM • 13. PBMC+LPS (5 ug/ml)+Xiidra®0.01 uM • 14. PBMC+LPS (5 ug/ml)+Xiidra®0.001 uM • 15. PBMC+LPS (5 ug/ml)+YY-101 100 uM • 16. PBMC+LPS (5 ug/ml)+YY-101 10 uM • 17. PBMC+LPS (5 ug/ml)+YY-101 1 uM • 18. PBMC+LPS (5 ug/ml)+YY-101 0.1 uM • 19. PBMC+LPS (5 ug/ml)+YY-101 0.01 uM • 20. PBMC+LPS (5 ug/ml)+YY-101 0.001 uM • 21. PBMC+LPS (5 ug/ml)+YDE-011 100 uM • 22. PBMC+LPS (5 ug/ml)+YDE-011 10 uM • 23. PBMC+LPS (5 ug/ml)+YDE-011 1 uM • 24. PBMC+LPS (5 ug/ml)+YDE-011 0.1 uM • 25. PBMC+LPS (5 ug/ml)+YDE-011 0.01 uM • 26. PBMC+LPS (5 ug/ml)+YDE-011 0.001 uM • 27. PBMC+LPS (5 ug/ml)+YDE-043 100 uM • 28. PBMC+LPS (5 ug/ml)+YDE-043 10 uM • 29. PBMC+LPS (5 ug/ml)+YDE-043 1 uM • 30. PBMC+LPS (5 ug/ml)+YDE-043 0.1 uM • 31. PBMC+LPS (5 ug/ml)+YDE-043 0.01 uM • 32. PBMC+LPS (5 ug/ml)+YDE-043 0.001 uM
Multiplex assay was used to measure 30 cytokines and chemokines. The 1:2, 1:10 and 1:200 diluted cell supernatant and serial dilution of the standard were dispensed into a 96 well plate at 50 ul/well. Then, the pre-mixed cocktail of antibody-coated magnetic beads was dispensed at 50 ul/well and incubated at room temperature for 2 h in a horizontal orbital microplate shaker at 800±500 rpm. The beads were washed using a magnetic device to prevent loss. The biotin-antibody was dispensed in 50 ul of each well and incubated at room temperature for 1 h in a shaker at 800±500 rpm. After washing, streptavidin-PE was added at 50 ul/well and incubated at room temperature for 30 min in a shaker under the same conditions. Finally, after washing, wash buffer (100 ul/well) was added to the plate and incubated in a shaker for 2 min. The Luminex™ 200 setting were set according to the manufacturer's protocol. The data was calculated with a standard five-parameter logistic nonlinear regression analysis of the data (xPonent software 4.2, USA). The levels of cytokine/chemokine are normalized to the live cell counts (1×10^5 cells/mL) and presented as concentrations per mL (pg/mL or ng/mL).

[1] = PBMC + LPS(5 ug/ml) + test article 0.1 uM, single replicates
[2] = PBMC + LPS(5 ug/ml) + test article 1 uM, Mean
[3] = PBMC + LPS(5 ug/ml) + test article 1 uM, single replicates
[4] = PBMC + LPS(5 ug/ml) + test article 10 uM, Mean
[5] = PBMC + LPS(5 ug/ml) + test article 10 uM, single replicates
[6] = PBMC + LPS(5 ug/ml) + test article 100 uM, Mean
[7] = PBMC + LPS(5 ug/ml) + test article 100 uM, single replicates
[8] = PBMC + test article 0.01 uM, no LPS, Mean
[9] = PBMC + test article 0.01 uM, no LPS, single replicates
[10] = PBMC + test article 0.1 uM, no LPS, Mean
[11] = PBMC + test article 0.1 uM, no LPS, single replicates
[12] = PBMC + test article 1 uM, no LPS, Mean
[13] = PBMC + test article 1 uM, no LPS, single replicates
[14] = PBMC + test article 10 uM, no LPS, Mean
[15] = PBMC + test article 10 uM, no LPS, single replicates
[16] = PBMC + test article 100 uM, no LPS, Mean
[17] = PBMC + test article 100 uM, no LPS, single replicates

For CC(C)C[C@H](NC(=O)CNC(=O)[C@H](CC(=O)O)NC(=O)[C@H](CCC(N)=O)NC(=O)CNC(=O)[C@@H]1C[C@@H](O)CN1)C(=O)N[C@@H](C)C(=O)NCC(=O)N1CCC[C@H]1C(=O)N[C@@H](CCCCN)C(=O)O [YY-101] (H-[Hyp]GQDGLAGPK-OH; N-terminus and C-terminus assumed), the “MFI, Bead name: IL-2” value (PBMC + LPS(5 ug/ml) + test article 0.1 uM, Mean) was 6.3, the IL-2 conc/live cell [1] was 0.0 pg/10^5 and the “MFI, Bead name: IL-2” value [1] was 8.0 (2×) and 3.0. For the same molecule, the IL-2 conc/live cell [2] was 0.6 pg/10^5, the “MFI, Bead name: IL-2” value [2] was 13.7 and the “IL-2 Concentration” value [2] was 3.8 pg/mL. For the same molecule, the “IL-2 Concentration” value [3] was 5.2 pg/mL and 3.7 pg/mL and 2.6 pg/mL, the IL-2 conc/live cell [3] was 0.8 pg/10^5 and 0.5 pg/10^5 and 0.4 pg/10^5 and the “MFI, Bead name: IL-2” value [3] was 15.5 and 13.5 and 12.0. The IL-2 conc/live cell [4] was 0.8 pg/10^5, the “MFI, Bead name: IL-2” value [4] was 15.7 and the “IL-2 Concentration” value [4] was 5.3 pg/mL. For the same molecule, the “IL-2 Concentration” value [5] was 8.0 pg/mL and 4.1 pg/mL and 3.7 pg/mL, the IL-2 conc/live cell [5] was 1.3 pg/10^5 and 0.6 pg/10^5 and 0.5 pg/10^5 and the “MFI, Bead name: IL-2” value [5] was 19.5 and 14.0 and 13.5. For the same molecule, the IL-2 conc/live cell [6] was 0.1 pg/10^5, the “MFI, Bead name: IL-2” value [6] was 9.0 and the “IL-2 Concentration” value [6] was 1.1 pg/mL. The “IL-2 Concentration” value [7] was 1.9 pg/mL and 0.4 pg/mL, the IL-2 conc/live cell [7] was 0.3 pg/10^5 and 0.1 pg/10^5 and 0.0 pg/10^5 and the “MFI, Bead name: IL-2” value [7] was 11.0 and 9.0 and 7.0. For the same molecule, the IL-2 conc/live cell [8] was 11.5 pg/10^5, the “MFI, Bead name: IL-2” value [8] was 93.3 and the “IL-2 Concentration” value [8] was 57.4 pg/mL. The “IL-2 Concentration” value [9] was 56.9 pg/mL and 57.9 pg/mL, the IL-2 conc/live cell [9] was 10.9 pg/10^5 and 12.1 pg/10^5 and the “MFI, Bead name: IL-2” value [9] was 92.5 and 94.0. The IL-2 conc/live cell [10] was 11.5 pg/10^5, the “MFI, Bead name: IL-2” value [10] was 96.3 and the “IL-2 Concentration” value [10] was 59.3 pg/mL. For the same molecule, the “IL-2 Concentration” value [11] was 45.4 pg/mL and 73.2 pg/mL, the IL-2 conc/live cell [11] was 10.3 pg/10^5 and 12.6 pg/10^5 and the “MFI, Bead name: IL-2” value [11] was 75.0 and 117.5. The IL-2 conc/live cell [12] was 11.4 pg/10^5, the “MFI, Bead name: IL-2” value [12] was 101.5 and the “IL-2 Concentration” value [12] was 62.8 pg/mL. The “IL-2 Concentration” value [13] was 59.8 pg/mL and 65.7 pg/mL, the IL-2 conc/live cell [13] was 10.9 pg/10^5 and 11.9 pg/10^5 and the “MFI, Bead name: IL-2” value [13] was 97.0 and 106.0. For the same molecule, the IL-2 conc/live cell [14] was 11.3 pg/10^5, the “MFI, Bead name: IL-2” value [14] was 113.5 and the “IL-2 Concentration” value [14] was 70.6 pg/mL. For the same molecule, the “IL-2 Concentration” value [15] was 69.6 pg/mL and 71.5 pg/mL, the IL-2 conc/live cell [15] was 10.9 pg/10^5 and 11.7 pg/10^5 and the “MFI, Bead name: IL-2” value [15] was 112.0 and 115.0. The IL-2 conc/live cell [16] was 2.2 pg/10^5, the “MFI, Bead name: IL-2” value [16] was 29.0 and the “IL-2 Concentration” value [16] was 14.6 pg/mL. The “IL-2 Concentration” value [17] was 13.2 pg/mL and 16.0 pg/mL, the IL-2 conc/live cell [17] was 2.1 pg/10^5 and 2.3 pg/10^5 and the “MFI, Bead name: IL-2” value [17] was 27.0 and 31.0.

Reference: US20230146455A1, “TREATMENT OF INFLAMMATORY DISEASES WITH PEPTIDES AND PHARMACEUTICAL COMPOSITIONS” (Yuyu Pharma, Inc., priority 2020, published 2023)
